# In patent publication US9607202B2, “Methods of generating trophectoderm and neurectoderm from human embryonic stem cells” (UNIVERSITY OF PITTSBURGH—OF THE COMMONWEALTH SYSTEM OF …, priority 2009, dated 2017):
# B1: noggin: BMP4 antagonist protein; mouse recombinant noggin (protein, UniProt P97466 28-232, looked up)
# Noggin: QHYLHIRPAPSDNLPLVDLIEHPDPIFDPKEKDLNETLLRSLLGGHYDPGFMATSPPEDRPGGGGGPAGGAEDLAELDQLLRQRPSGAMPSEIKGLEFSEGLAQGKKQRLSKKLRRKLQMWLWSQTFCPVLYAWNDLGSRFWPRYVKVGSCFSKRSCSVPEGMVCKPSKSVHLTVLRWRCQRRGGQRCGWIPIQYPIISECKCSC
# How the values were obtained:
# [1] = system: pluripotent hESCs, line H7; assay: TE-induction and lineage selectivity of hESCs by transcription factor immunostaining (CDX2, brachyury, GATA6, OCT4); format: cell-based, human
# Method: Pluripotent hESCs, line H7, were grown on mitomycin-treated MEFs (GlobalStem) at normal-density (120,000 cells/6 cm^2), maintained in DSR media (Table 1), and passaged weekly using Collagenase IV (Invitrogen/Gibco) and StemPro®EZPassage™ (Invitrogen) as directed. Cell colonies were briefly spun, resuspended in DSR, and plated onto normal density MEFs in CM (Table1). For TE-directed differentiation, hESCs were passaged at 1:5 dilution onto low-density MEFs (30,000 cells/6 cm^2) using DSR media minus FGF2 supplemented with BMP4 (Invitrogen, PHC7914) 100 ng/mL. Media was changed daily.
# Feeder-free hESCs were grown on Geltrex (Invitrogen)-coated plates in StemPro (Invitrogen), passaged weekly with Collagenase IV or Accutase (StemCell Technologies) as directed, resuspended in StemPro and plated onto Geltrex-coated plates. For TE-directed differentiation pluripotent hESCs maintained in StemPro or in Erb's Minimal Induction Media (EMIM) were passaged onto feeder-free, Geltrex-coated plates into respective basal media supplemented with the activin A antagonist, SB431542 (10 uM), and/or BMP4 (100 ng/mL or 500 ng/mL) as indicated. Media was changed daily. Terminal STB differentiation was accomplished by culturing hESCs in EMIM+SB+100 ng/mL BMP4 for 14 days.
# In PBS, cell colonies were fixed with 2% paraformaldehyde, permeabilized with 1% Triton X-100 (Sigma, St. Louis Mo.), and non-specific antibody binding blocked with 10% goat serum. Primary antibodies (Table 2) were diluted in 1% goat serum, spun briefly, and incubated overnight at 37° C. After a wash in PBS-Tween 0.05% a species-specific fluorescent secondary antibody (prepared as above) was added for 60 min at 37° C. Cells were washed in PBS-Tween 0.05%, incubated in Hoechst […] (1:10,000), and mounted in Gelvatol polyvinyl alcohol-based media (Sammak et al., 1987).
# Nuclear labeling (Hoechst 33342) facilitates automated image segmentation for counting cell number. Since pluripotent hESCs can differentiate along multiple lineages, TE-differentiation was determined by immunostaining for transcription factors localized to the cell's nucleus or cytoplasm (Table 2). Four color microscopy permits co-labeling of cells with markers of pluripotent hESCs (OCT4), TE cells (CDX2), and alternative markers for early differentiation including neurectoderm (nestin), mesoderm (brachyury), or extraembryonic endoderm
# (GATA6). TE-induction was determined by two criteria: 1) the percentage of all cells that were CDX2-positive and the fold change of CDX2-nuclear intensity over control, unstimulated cells. […] TE selectivity was determined by a significant percentage of CDX2-positive cells and a suppression of the percentage of nestin-, brachyury-, and GATA6-positive cells.
# 96-well Microplates were scanned using the 5 or 10× objective on the ArrayScan V Automated image analysis was performed using the Compartmental Analysis BioApplication using Hoechst for identification of nuclei and various transcription factor antibodies (Table 2). Nuclear-specific fluorescence intensity was determined from approximately 300 single cells per well from 3-6 independent wells to produce a well-average nuclear intensity for each measurement Mean and standard deviation were calculated from multiple wells. Fold change of the mean intensities were normalized against matched unstimulated external controls, usually the pluripotent condition, to divide out differences due to efficiency of antibody-antigen binding and chromophore quantum yield. […] Select conditions are additionally compared in bar graph format to show standard deviations and T-tests.
# hESCs [2] = assay: hESC viability and OCT4 expression in minimal induction media; format: cell-based, human
# Text: Thus, to maintain compatibility with StemPro-cultured hESC, a DMEM/F12-based minimal induction media (MIM, Table 1) was developed by testing short-term hESC viability (FIG. 7) and OCT4 expression (FIG. 2) after systematically reintroducing cell survival, but not pluripotency, components.
# One criterion for derivation of a minimal induction media was that hESCs would be viable and continue to express the OCT4 pluripotency marker. […] A second criterion for the derivation of a minimal induction media was that hESC would remain competent to differentiate.
# hESCs (line UCO6 (HSF6)) = assay: Neuronal differentiation of hESCs on different surfaces; format: cell-based, human
# Method: All coverslips (Fisher scientific, Pittsburgh, Pa.) were adhered onto the bottom of 24-well plate with Kwik Sil (World Precision Instruments, Inc., Sarasota, Fla.). Before cell seeding, the surface of coverslips were sterilized under UV for 30 min, and then immersed into PBS for 30 min. Laminin (BD Biosciences, San Jose, Calif.) coated glass coverslips were also prepared as control substrates for cell culture.
# hESCs, line HSF6 obtained from the University of California-San Francisco and WiCell, respectively were approved by the University of Pittsburgh ESCRO committee with IRB exempt approval. hESCs were maintained in ES-DMEM high glucose with 20% KSR, 1% MEM NEAA (WiCell Research Institute, Madison, Wis.), Pen/Strep (10,000 U/10,000 ug), 1% L-Glutamine (2 mM), and 8 ng/mL bFGF (Invitrogen, Carlsbad, Calif.), and passaged in 50-100 cell clusters as recommended. hESCs were grown on mitomycin-treated MEFs prepared from 14-day CF-1 embryos. Media was changed every other day and colonies were mechanically passaged every […] with a Pasteur pipette. […]
# (§1) Neuronal differentiation was detected by anti-βIII tubulin for hESCs, anti-NF200 for rNSCs. […]
# rNSCs = assay: Neuronal differentiation of rNSCs cultured on different surfaces; format: cell-based, rat
# Method: All coverslips (Fisher scientific, Pittsburgh, Pa.) were adhered onto the bottom of 24-well plate with Kwik Sil (World Precision Instruments, Inc., Sarasota, Fla.). Before cell seeding, the surface of coverslips were sterilized under UV for 30 min, and then immersed into PBS for 30 min. Laminin (BD Biosciences, San Jose, Calif.) coated glass coverslips were also prepared as control substrates for cell culture. […]
# as §1
# For rNSCs, neuronal cells (NF200 positive) were counted on the whole coverslips and averaged values across all coverslips were presented as mean±SD. Total cell number was calculated from the number of nuclei. Cell nuclei were counted on ten randomly selected images, averaged, divided by image area and then multiplied by the area of coverslip. […] Cell density was calculated by dividing values of cell number by the image area. Neurite length was measured using Image J and plug-in Neuron J. Length of the primary neurite and all neurites of each cell in each group was measured by tracing the neurites of NF200 positive cells with the tracing algorithm contained in Neuron J. Primary neurite was defined as the longest process out of cell body. […]
# hESCs [3] = assay: Terminal differentiation to syncytia (percentage of bi- or multi-nucleated cells); format: cell-based, human; conditions: neurectoderm culture conditions induced by noggin
# hESC = assay: Neurectoderm differentiation from hESCs in noggin media; format: cell-based, human; conditions: small colonies from StemPro
# Method: There are several laboratories that have applied the BMP4 antagonist noggin for differentiation of hESC to neurectoderm or neural stem cells (Ying, Stavridis et al. 2003; Gerrard, Rodgers et al. 2005; Yao, Chen et al. 2006; Cohen, Itsykson et al. 2007). Here, small colonies grown in StemPro are used as the starting material. Cells were plated in StemPro media or neural differentiation media (DMEM/F12 media supplemented with N2/B27). After each day of growth, colonies with the smallest colonies were changed into Noggin media. When colonies grown in noggin had differentiated along a neurectoderm lineage, the cells were fixed for immunostaining. If the colonies had not differentiated, the media was changed and the cells remained in Noggin media for another day. The process was repeated each day for 6-7 days. Cells were immunostained with the following antibodies: Pax6 mouse (Santa Cruz), Otx2 rabbit (Abeam), Nestin mouse (Covance), Alexa 488 goat anti mouse green, Cy3 goat anti rabbit red, Cy5 goat anti mouse far red.
# [4] = short-term treatment in StemPro (SB or low-dose BMP4 alone)
molecule,measurement,setting,value
"NC(=O)c1ccc(-c2nc(-c3ccc4c(c3)OCO4)c(-c3ccccn3)[nH]2)cc1 [SB, SB431542]",brachyury expression,[1]; [4],significant increase in brachyury expression
OCCS [β-mercaptoethanol],hESC survival,hESCs [2]; addition to minimal induction media with or without heparin,reduced hESC survival
"BMP4: bone morphogenic protein (BMP4), TGFβ superfamily member",fraction of cell population induced to non-TE lineages,[1]; 100 ng/mL BMP4 in MIM,over half of the cell population
same,TE-induction efficiency as frequency of CDX2 staining,"[1]; BMP4, monolayer colonies, DSR/MEF culture (low density MEFs minus FGF2), 7 days",3.6%
same,TE-induction efficiency as frequency of CDX2 staining,"[1]; BMP4, multilayer colonies, DSR/MEF culture, 7 days",44.4%
same,increase in percent brachyury (T) positive cells,[1]; BMP4 added to StemPro for 48 hours,6 fold
same,CDX2 induction,"[1]; BMP4 alone 500 ng/mL in EMIM, day 2",Significant CDX2 induction
same,extraembryonic endoderm (GATA6) positive cells,[1]; BMP4 in MIM,~20%
same,mesoderm (brachyury) positive cells,[1]; BMP4 in MIM,over 40%
same,OCT4 expression,[1]; BMP4 supplementation on low density MEFs,decreased OCT4 expression
same,CDX2 expression,"[1]; BMP4 supplementation to EMIM, culture day 7",induced diffuse CDX2 expression
same,GATA6 over MIM alone,[1]; BMP4 supplementation to MIM,did not increase
same,brachyury over MIM alone,[1]; BMP4 supplementation to MIM,did not increase
same,fold induction of CDX2 over MIM alone,[1]; BMP4 supplementation to MIM,significantly increased
same,TE-induction efficiency as frequency of CDX2 staining,"[1]; StemPro containing BMP4, MEF-free, 4 days",93.7%
same,brachyury expression,[1]; addition of BMP4 to StemPro,"dose-dependent, statistically significant increase"
same,brachyury expression,[1]; [4],significant increase in brachyury expression
heparin,hESC viability,hESCs [2]; basal media once BMP4 was supplemented,improve hESC viability
laminin,number of cells per colony,hESCs (line UCO6 (HSF6)); end of the second week (14 days),indistinguishable
same,adhesion and spreading of hESC embryoid bodies/colonies,"hESCs (line UCO6 (HSF6)); feeder-free, within the first week",adhered
same,percentage of neurons (NF200 positive cells),rNSCs; 7 d,higher percentage of neurons
same,percentage of neurons (NF200 positive cells),rNSCs; 14 d,higher percentage of neurons
B1,multinucleated cells,hESCs [3],absent
same,efficiency of producing Nestin-positive cells,hESC,~100%
same,time to produce Nestin-positive cells,hESC,3 to 7 days
